Measured values: ChEMBL document CHEMBL1909046, “DrugMatrix in vitro pharmacology data”

Key:
[1] = biological target: Vascular endothelial growth factor receptor 1 (Homo sapiens, UniProt P17948); assay type: cell-based; conditions: huvec; further: in other assays of this panel Not Active means under 50% inhibition at 10 µM
Progesterone receptor = biological target: T1, Progesterone receptor (Bos taurus, UniProt Q690N0); experiment: DRUGMATRIX: Progesterone radioligand binding (ligand: [3H] R-5020); assay type: tissue-based, Uterus; conditions: Not Active = under 50% inhibition at 10 µM; for Ki: read-out: Ki
T1 sequence (Q690N0 whole entry): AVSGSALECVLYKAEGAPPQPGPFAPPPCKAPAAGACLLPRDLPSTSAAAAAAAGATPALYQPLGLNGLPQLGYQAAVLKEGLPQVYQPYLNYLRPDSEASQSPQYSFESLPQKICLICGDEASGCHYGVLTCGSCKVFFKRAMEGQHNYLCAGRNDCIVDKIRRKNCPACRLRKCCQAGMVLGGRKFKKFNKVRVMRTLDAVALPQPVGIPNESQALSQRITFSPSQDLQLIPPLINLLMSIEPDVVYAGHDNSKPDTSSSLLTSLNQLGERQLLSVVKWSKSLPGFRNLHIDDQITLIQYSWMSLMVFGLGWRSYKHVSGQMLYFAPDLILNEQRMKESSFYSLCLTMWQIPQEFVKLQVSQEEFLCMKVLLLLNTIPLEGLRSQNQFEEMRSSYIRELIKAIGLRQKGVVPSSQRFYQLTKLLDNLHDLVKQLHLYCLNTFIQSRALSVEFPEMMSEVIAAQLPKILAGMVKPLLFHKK

[2] = biological target: Beta-1 adrenergic receptor (Homo sapiens, UniProt P08588); experiment: DRUGMATRIX: Adrenergic beta1 radioligand binding (ligand: [125I] Cyanopindolol); assay type: cell membranes, CHO-K1, Membrane; conditions: Not Active = under 50% inhibition at 10 µM
[3] = biological target: T2, Muscarinic acetylcholine receptor M5 (Homo sapiens, UniProt P08912); assay type: cell membranes, CHO-K1, Membrane; further: in other assays of this panel Not Active means under 50% inhibition at 10 µM
T2 sequence (P08912 whole entry): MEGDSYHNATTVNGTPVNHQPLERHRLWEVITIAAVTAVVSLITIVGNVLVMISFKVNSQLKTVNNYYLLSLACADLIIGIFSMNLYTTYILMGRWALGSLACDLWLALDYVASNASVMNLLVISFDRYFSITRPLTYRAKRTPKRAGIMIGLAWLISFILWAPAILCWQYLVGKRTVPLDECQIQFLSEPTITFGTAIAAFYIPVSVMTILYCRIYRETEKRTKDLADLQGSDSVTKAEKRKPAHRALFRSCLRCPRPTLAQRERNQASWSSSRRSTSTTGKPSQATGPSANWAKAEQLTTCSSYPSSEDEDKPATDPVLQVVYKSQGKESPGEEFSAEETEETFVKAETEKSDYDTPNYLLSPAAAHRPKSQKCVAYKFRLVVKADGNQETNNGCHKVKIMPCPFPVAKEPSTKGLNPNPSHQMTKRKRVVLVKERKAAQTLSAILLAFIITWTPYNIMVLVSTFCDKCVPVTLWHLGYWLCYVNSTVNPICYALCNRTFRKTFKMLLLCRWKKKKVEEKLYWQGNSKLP

D(1A) dopamine receptor = D(1A) dopamine receptor (Homo sapiens, UniProt P21728); experiment: DRUGMATRIX: Dopamine D1 radioligand binding (ligand: [3H] SCH-23390); assay type: cell membranes, CHO, Membrane; conditions: Not Active = under 50% inhibition at 10 µM; for Ki: read-out: Ki
Glycine receptor = Glycine receptor (Rattus norvegicus, UniProt P22771+P24524+P07727+P20781); assay type: cell membranes, Wistar, Spinal cord, Membrane; further: in other assays of this panel Not Active means under 50% inhibition at 10 µM
Adenosine receptor A2a = Adenosine receptor A2a (Homo sapiens, UniProt P29274); experiment: DRUGMATRIX: Adenosine A2A radioligand binding (ligand: […]); assay type: cell membranes, HEK293, Membrane; conditions: Not Active = under 50% inhibition at 10 µM
[4] = biological target: Mitogen-activated protein kinase 1 (Homo sapiens, UniProt P28482); experiment: DRUGMATRIX: Protein Serine/Threonine Kinase, ERK2 enzyme inhibition (substrate: Myelin Basic Protein); parameters: species or system Escherichia coli; conditions: Not Active = under 50% inhibition at 10 µM
Calcitonin receptor = biological target: T3, Calcitonin receptor (Homo sapiens, UniProt P30988); assay type: cell membranes, Membrane; conditions: t47d; further: in other assays of this panel Not Active means under 50% inhibition at 10 µM
T3 sequence (P30988 whole entry): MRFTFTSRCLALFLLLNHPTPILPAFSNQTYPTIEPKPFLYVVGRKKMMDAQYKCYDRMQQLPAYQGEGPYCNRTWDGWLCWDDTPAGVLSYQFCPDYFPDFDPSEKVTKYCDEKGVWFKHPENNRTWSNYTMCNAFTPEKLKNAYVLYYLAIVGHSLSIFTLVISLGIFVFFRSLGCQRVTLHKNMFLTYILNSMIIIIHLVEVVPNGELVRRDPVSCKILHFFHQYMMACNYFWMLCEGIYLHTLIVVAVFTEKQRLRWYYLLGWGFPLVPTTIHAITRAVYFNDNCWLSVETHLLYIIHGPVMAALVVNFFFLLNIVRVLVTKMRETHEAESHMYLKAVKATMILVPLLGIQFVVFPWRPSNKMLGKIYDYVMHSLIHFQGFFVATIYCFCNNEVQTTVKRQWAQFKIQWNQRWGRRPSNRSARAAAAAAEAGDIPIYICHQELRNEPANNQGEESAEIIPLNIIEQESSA

Endothelin-1 receptor = biological target: T4, Endothelin-1 receptor (Homo sapiens, UniProt P25101); assay type: cell membranes, Membrane; conditions: cho-k1; further: in other assays of this panel Not Active means under 50% inhibition at 10 µM
T4 sequence (P25101 whole entry): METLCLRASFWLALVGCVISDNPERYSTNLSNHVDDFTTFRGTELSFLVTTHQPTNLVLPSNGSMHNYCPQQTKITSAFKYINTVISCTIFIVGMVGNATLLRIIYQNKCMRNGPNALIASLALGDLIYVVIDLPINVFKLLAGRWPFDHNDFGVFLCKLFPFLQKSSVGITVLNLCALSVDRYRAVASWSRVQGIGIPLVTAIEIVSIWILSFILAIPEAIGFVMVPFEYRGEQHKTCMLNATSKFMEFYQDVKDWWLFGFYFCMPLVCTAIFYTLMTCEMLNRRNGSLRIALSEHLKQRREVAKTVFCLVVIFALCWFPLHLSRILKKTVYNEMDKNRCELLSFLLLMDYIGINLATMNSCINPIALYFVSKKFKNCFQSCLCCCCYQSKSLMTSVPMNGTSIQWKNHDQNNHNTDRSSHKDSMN

Adenosine receptor A2a, sequence (P29274 whole entry): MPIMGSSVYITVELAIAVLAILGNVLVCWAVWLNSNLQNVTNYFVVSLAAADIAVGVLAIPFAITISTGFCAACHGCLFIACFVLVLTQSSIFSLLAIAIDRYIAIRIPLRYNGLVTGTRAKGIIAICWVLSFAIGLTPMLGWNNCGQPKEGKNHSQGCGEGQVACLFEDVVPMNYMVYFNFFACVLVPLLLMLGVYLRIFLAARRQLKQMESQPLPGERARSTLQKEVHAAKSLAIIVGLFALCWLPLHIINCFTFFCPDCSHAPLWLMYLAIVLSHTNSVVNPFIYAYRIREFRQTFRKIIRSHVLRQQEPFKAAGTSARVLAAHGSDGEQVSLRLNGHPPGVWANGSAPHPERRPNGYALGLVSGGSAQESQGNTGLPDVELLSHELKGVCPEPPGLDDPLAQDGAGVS
Vascular endothelial growth factor receptor 1, sequence (P17948 whole entry): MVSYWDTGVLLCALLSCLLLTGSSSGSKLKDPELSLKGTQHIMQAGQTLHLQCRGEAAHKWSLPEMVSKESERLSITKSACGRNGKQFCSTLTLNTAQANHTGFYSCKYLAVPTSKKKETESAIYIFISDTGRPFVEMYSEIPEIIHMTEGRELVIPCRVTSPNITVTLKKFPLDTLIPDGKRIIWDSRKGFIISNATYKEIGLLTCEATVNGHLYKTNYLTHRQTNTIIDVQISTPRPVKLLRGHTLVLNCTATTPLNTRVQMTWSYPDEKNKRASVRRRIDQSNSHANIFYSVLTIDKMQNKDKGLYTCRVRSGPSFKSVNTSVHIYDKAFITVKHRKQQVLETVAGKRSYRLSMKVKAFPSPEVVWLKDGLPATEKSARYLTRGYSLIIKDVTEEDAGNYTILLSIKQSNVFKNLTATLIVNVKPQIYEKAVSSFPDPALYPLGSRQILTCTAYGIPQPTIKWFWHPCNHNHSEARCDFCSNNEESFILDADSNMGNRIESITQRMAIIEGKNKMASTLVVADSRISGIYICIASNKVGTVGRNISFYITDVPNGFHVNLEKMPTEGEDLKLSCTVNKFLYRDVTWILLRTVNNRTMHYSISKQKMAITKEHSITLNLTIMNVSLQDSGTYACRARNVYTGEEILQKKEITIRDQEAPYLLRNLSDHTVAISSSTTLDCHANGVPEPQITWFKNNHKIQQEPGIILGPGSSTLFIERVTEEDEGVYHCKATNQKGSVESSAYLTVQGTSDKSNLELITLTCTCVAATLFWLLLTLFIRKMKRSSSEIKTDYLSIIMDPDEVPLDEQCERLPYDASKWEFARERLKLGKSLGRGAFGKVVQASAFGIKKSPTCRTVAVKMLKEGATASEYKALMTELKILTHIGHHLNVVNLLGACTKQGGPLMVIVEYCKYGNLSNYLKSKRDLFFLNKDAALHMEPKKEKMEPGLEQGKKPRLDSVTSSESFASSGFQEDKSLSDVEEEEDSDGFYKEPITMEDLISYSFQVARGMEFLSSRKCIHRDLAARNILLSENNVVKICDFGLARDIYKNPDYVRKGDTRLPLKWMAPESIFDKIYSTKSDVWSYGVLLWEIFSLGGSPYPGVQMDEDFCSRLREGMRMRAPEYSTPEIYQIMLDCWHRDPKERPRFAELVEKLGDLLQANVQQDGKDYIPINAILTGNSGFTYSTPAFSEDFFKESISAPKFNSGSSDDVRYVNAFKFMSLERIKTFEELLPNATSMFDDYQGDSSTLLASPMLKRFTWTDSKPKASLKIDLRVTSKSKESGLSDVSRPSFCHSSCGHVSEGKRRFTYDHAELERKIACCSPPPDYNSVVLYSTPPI
D(1A) dopamine receptor, sequence (P21728 whole entry): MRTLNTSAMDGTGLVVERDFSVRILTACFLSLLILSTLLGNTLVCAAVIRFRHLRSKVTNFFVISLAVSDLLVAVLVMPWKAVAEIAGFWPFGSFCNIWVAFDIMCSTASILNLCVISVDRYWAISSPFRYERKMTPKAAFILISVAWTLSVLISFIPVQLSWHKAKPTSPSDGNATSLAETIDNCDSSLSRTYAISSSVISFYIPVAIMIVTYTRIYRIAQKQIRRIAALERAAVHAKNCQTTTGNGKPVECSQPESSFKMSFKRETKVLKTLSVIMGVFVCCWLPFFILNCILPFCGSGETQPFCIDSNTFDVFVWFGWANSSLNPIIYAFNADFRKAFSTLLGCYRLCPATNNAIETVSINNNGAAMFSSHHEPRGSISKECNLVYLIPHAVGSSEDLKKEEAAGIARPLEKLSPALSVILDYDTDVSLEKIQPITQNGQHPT
Mitogen-activated protein kinase 1, sequence (P28482 whole entry): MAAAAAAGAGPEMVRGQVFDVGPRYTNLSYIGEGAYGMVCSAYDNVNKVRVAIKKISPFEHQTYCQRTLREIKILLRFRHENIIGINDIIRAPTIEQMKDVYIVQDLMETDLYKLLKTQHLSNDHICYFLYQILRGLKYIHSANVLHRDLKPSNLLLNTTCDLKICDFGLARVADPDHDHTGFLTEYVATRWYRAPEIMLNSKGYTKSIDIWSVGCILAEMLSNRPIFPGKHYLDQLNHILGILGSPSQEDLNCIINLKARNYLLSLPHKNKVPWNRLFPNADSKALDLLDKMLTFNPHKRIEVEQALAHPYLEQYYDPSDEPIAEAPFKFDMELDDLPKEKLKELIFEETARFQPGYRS
Beta-1 adrenergic receptor, sequence (P08588 whole entry): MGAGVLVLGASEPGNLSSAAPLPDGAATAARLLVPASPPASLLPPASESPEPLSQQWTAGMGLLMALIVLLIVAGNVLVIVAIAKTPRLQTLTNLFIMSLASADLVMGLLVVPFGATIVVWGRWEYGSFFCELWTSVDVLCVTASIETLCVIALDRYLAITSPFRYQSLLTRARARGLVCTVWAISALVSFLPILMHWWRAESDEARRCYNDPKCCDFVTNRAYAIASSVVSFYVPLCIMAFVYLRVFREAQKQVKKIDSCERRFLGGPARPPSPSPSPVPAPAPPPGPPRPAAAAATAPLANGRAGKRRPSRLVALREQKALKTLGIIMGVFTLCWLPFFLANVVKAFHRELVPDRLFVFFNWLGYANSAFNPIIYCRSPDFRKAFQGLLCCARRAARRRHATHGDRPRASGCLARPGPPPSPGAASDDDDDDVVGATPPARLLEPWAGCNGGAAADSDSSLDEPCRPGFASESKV

Row | Structure (SMILES) | IC50 [1] | IC50 (Progesterone receptor) | IC50 ([2]; cho-k1) | IC50 ([3]; cho-k1) | IC50 (D(1A) dopamine receptor; cho) | IC50 (Glycine receptor) | IC50 (Adenosine receptor A2a; hek293) | IC50 [4] | IC50 (Calcitonin receptor) | IC50 (Endothelin-1 receptor) | also measured
1 | CC(/C=C1\SC(=S)N(CC(=O)O)C1=O)=C\c1ccccc1 | Not Active | Not Active | Not Active | Not Active | Not Active | Not Active | Not Active | Not Active | Not Active | Not Active | –
2 | CCC1(c2ccccc2)C(=O)NCNC1=O [PRIMIDONE] | Not Active | Not Active | Not Active | Not Active | Not Active | Not Active | Not Active | Not Active | Not Active | Not Active | –
3 | CNCCC=C1c2ccccc2CCc2ccccc21 [NORTRIPTYLINE] | Not Active | Not Active | Not Active | – | – | Not Active | Not Active | Not Active | Not Active | Not Active | IC50 ([3]; read-out: IC50): 27 nM; Ki ([3]; read-out: Ki): 20 nM; IC50 (D(1A) dopamine receptor; read-out: IC50): 539 nM; Ki (D(1A) dopamine receptor): 269 nM
4 | CCOC(=O)c1ccc(N)cc1 [BENZOCAINE] | Not Active | Not Active | Not Active | Not Active | Not Active | Not Active | Not Active | Not Active | Not Active | Not Active | –
5 | CC=CC(=O)N(CC)c1ccccc1C | Not Active | Not Active | Not Active | Not Active | Not Active | Not Active | Not Active | Not Active | Not Active | Not Active | –
6 | CC(=O)O[C@]1(C(C)=O)CC[C@H]2[C@@H]3C=C(Cl)C4=CC(=O)CC[C@]4(C)[C@H]3CC[C@@]21C [CHLORMADINONE ACETATE] | Not Active | – | Not Active | Not Active | Not Active | Not Active | Not Active | Not Active | Not Active | Not Active | IC50 (Progesterone receptor; read-out: IC50): 5.26 nM; Ki (Progesterone receptor): 0.687 nM
7 | Cn1cnc([N+](=O)[O-])c1Sc1ncnc2nc[nH]c12 [AZATHIOPRINE] | Not Active | Not Active | Not Active | Not Active | Not Active | Not Active | Not Active | Not Active | Not Active | Not Active | –
8 | Oc1c(Cl)cc(Cl)cc1Sc1cc(Cl)cc(Cl)c1O [BITHIONOL] | Not Active | Not Active | Not Active | Not Active | Not Active | Not Active | – | – | Not Active | Not Active | IC50 (Adenosine receptor A2a; read-out: IC50): 1170 nM; Ki (Adenosine receptor A2a; read-out: Ki): 655 nM; IC50 ([4]; read-out: IC50): 385 nM
9 | COC1=CC(=O)C[C@@H](C)[C@]12Oc1c(Cl)c(OC)cc(OC)c1C2=O [GRISEOFULVIN] | Not Active | Not Active | Not Active | Not Active | Not Active | Not Active | Not Active | Not Active | Not Active | Not Active | –
10 | CN1C[C@H](C(=O)N[C@]2(C)O[C@@]3(O)[C@@H]4CCCN4C(=O)[C@H](Cc4ccccc4)N3C2=O)C=C2c3cccc4[nH]cc(c34)C[C@H]21 [ERGOTAMINE] | Not Active | Not Active | – | Not Active | – | Not Active | Not Active | Not Active | Not Active | Not Active | IC50 ([2]; read-out: IC50): 4.14 µM; Ki ([2]; read-out: Ki): 2390 nM; IC50 (D(1A) dopamine receptor; read-out: IC50): 1730 nM; Ki (D(1A) dopamine receptor): 864 nM
11 | CCCc1cc(=O)[nH]c(=S)[nH]1 [PROPYLTHIOURACIL] | Not Active | Not Active | Not Active | Not Active | Not Active | Not Active | Not Active | Not Active | Not Active | Not Active | –
12 | Nc1nc2c(ncn2COC(CO)CO)c(=O)[nH]1 [GANCICLOVIR] | Not Active | Not Active | Not Active | Not Active | Not Active | Not Active | Not Active | Not Active | Not Active | Not Active | –
13 | CC(=O)OCC(=O)[C@@]1(OC(C)=O)[C@@H](C)C[C@H]2[C@@H]3C[C@H](F)C4=CC(=O)C=C[C@]4(C)[C@@]3(F)[C@@H](O)C[C@@]21C [DIFLORASONE DIACETATE] | Not Active | – | Not Active | Not Active | Not Active | Not Active | Not Active | Not Active | Not Active | Not Active | IC50 (Progesterone receptor; read-out: IC50): 116 nM; Ki (Progesterone receptor): 15 nM
14 | CNC(=O)Oc1ccc2c(c1)[C@]1(C)CCN(C)[C@@H]1N2C [PHYSOSTIGMINE] | Not Active | Not Active | Not Active | Not Active | Not Active | Not Active | Not Active | Not Active | Not Active | Not Active | –
